From US20030134859A1 (SANKYO COMPANY, LIMITED, priority 2000, published 2003)

Columns and labels:
[1] = test system: TNF-α production; assay: Inhibitory activity against cytokine (TNF-α) production in LPS-stimulated RAW264.7 cells; assay type: cell-based, mouse; conditions: Mus musculus, RAW264.7, 15 h, 1 μM test compound, LPS 10 ng/mL
Experimental: The mouse monocyte/macrophage cell line, RAW264.7 (ATCC TIB71) was purchased from Dainippon Pharmaceutical Co., Ltd. The RAW264.7 cells were cultured in a CO2 incubator (37° C., 95% of humidity, 5% of CO2) by using the Dulbecco's modified Eagle's medium (DMEM medium; GIBCO, Cat. No. 11995-040) containing bovine fetal serum (the final concentration: 10% (v/v), MOREGATE, lot No. 474030), penicillin G (the final concentration: 50 units/mL […], GIBCO) and streptomycin (the final concentration: 20 μg/mL, GIBCO).
Sixty (60) μL of the RAW264.7 cell suspension (83,000 cells/mL) were plated into each well of a 96-well microplate (5,000 cells/well). After the cells were cultured for 4 hr in a CO2 incubator, 40 μL of DMEM medium containing 25 ng/mL of LPS (Sigma-Aldrich Japan K. K.) were added into each well (final concentration of LPS: 10 ng/mL). The test compound dissolved in DMSO at a concentration of 1 mM was diluted with DMEM medium by 20 times. Then 2 μL/well of the diluted solution were added to wells containing the plated cells (final concentration of the test compound: 1 μM). As the control, 2 μL/well of DMSO diluted with DMEM medium by 20 times were added to wells containing the plated cells either with LPS (final concentration: 10 ng/mL) or without LPS. After these cells were cultured in a CO2 incubator for 15 hr, the supernatant of the medium was recovered. The amount of mTNF-α in the medium supernatant was determined with a mouse TNF-α ELISA kit Quantikine M (R&D System), according to the experiment protocol attached with the kit.
The inhibitory activity of the test compound against TNF-α production was calculated according to the following equation.
A: The amount of TNF-α in the presence of test compound
B: The amount of TNF-α in the control without LPS
C: The amount of TNF-α in the control with 10 ng/mL of LPS
Inhibitory Activity of the Test Compound against TNF-α Production (%)=100−(A−B)/(C−B)×100

[2] = test system: Rat white adipocytes; assay: Stimulation of differentiation of the adipocytes (Oil Red O); assay type: cell-based; conditions: Rattus norvegicus, Adipocyte, 120 h, 100 nM test compound; 5 days; Oil Red O ABS550; control = 100%, blank = 0%; Table 7; read-out: Rate of Differentiation (%)
Summary of the method: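 Oil Red O lipid staining, absorbance 550 nm after DMSO extraction, quantified differentiation of rat white adipocytes exposed 5 days to compound (final 100 nM, 0.1% DMSO) in differentiation medium. Percent differentiation normalised between cell-free blank (0%) and DMSO control (100%).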

[3] = test system: Mouse preadipocyte strain 3T3-L1; assay: Inhibition of differentiation as an indication of acetic acid uptake; assay type: cell-based; conditions: control (0.01% dimethylsulfoxide) = 100%; for activity at 0.1 µM: Mus musculus, 3T3-L1, 0.1 μM test substance, read-out: Rate of Uptake (%) of [2-14C] acetic acid
Summary of the method: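 Differentiation is indexed by 1 hr [2-14C]acetic acid incorporation, measured by scintillation counting and given as uptake relative to 0.01% DMSO control (100%). Mouse 3T3-L1 preadipocytes, pre-grown 10 days, received 0.1 μM test substance throughout a 4-day insulin/IBMX/dexamethasone induction, followed by 2 days' maintenance culture.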

[4] = target: T1, human PPAR γ 2 (Homo sapiens, UniProt P37231); assay: PPAR γ transcriptional activity, luciferase reporter, test compound alone; assay type: cell-based; conditions: concentration indicating Emax/2, MG63 cells transfected with pSG5-hPPARg and pGV-P2-PPRE, 24 hr
T1 construct: expressed in transfected cells; host or cells: human osteosarcoma MG63, transiently co-transfected with pSG5-hPPARg and the reporter pGV-P2-PPRE
T1 sequence (P37231 1-505): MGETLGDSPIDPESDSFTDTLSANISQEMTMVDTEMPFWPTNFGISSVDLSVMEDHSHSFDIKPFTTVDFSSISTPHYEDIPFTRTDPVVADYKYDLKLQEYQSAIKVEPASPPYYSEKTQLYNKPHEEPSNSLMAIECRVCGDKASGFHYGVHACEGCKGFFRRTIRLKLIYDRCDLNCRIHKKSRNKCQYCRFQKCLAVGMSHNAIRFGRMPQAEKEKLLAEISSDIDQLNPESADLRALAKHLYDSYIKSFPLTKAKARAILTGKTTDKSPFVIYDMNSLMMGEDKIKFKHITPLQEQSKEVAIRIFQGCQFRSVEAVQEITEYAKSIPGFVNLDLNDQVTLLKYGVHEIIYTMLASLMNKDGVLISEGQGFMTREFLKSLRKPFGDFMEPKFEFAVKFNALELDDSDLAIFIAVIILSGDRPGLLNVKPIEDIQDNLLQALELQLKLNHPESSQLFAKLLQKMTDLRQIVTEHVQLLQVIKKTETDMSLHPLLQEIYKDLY
Experimental: The primers of the polymerase chain reaction (hereinafter “PCR”) were designed according to the gene sequence of human PPAR γ 2 (GenBANK accession No. D83233). In order to insert the genes into the BamHI site of the plasmid pSG5 ([…] CLONING SYSTEMS), Bgl II sites were added upstream and downstream of the genes encoding human PPAR γ 2 protein. For this, 2 kinds of polynucleotides shown in the sequence numbers 1 and 2 in the sequence table described below (hereinafter “S1” and “AS1”, respectively) were used as PCR primers.
In order to determine transcriptional activity via PPAR γ, 2 kinds of polynucleotides represented in sequence numbers 3 and 4 in the sequence table described below (hereinafter “S2” and “AS2”, respectively) were used for construction of the reporter plasmid having PPAR responsive element. The DNA fragment inserted was designed based on the gene sequence in the promoter region of rat acylCo-A oxidase (J. D. Tugwood, EMBO J., 11 (2), pp433-439 (1992)). For insertion of the DNA fragment into the reporter plasmid pGV-P2 (TOYO INK MFG CO., LTD), a NheI site and an XhoI site were added to the S2 and AS2, respectively.
Using cDNA library (Clontech) derived from human adipose tissue as a template, DNA oligomers S1 and AS1 that were synthesized in the procedure 1 as primers and Ex-Taq™ (TAKARA BIO INC.) as a thermostable DNA polymerase-PCR was carried out. As a result of the PCR, the c.a. 1500 bps DNA fragments were amplified. Each cycle consisted of incubation at 94° C. for 1 min for denaturation of the template, then at 55° C. for 30 sec for annealing of DNA oligomers the PCR primer, and then at 72° C. for 30 sec for extension of the chain. The obtained DNA fragments with approximately 1500 base pairs were digested at the Bgl II sites and were inserted into BamHI sites of pSG5. Thus a human PPAR γ expression plasmid named pSG5-hPPAR g was obtained. The nucleotide sequence of the inserted DNA fragment was confirmed to be identical sequence to the human PPAR γ 2 reported by the dideoxy method.
Vector pGV-P2 digestion products was prepared by digestion using the restriction enzymes, NheI and XhoI, and purified by 1.0% agarose-gel electrophoresis. The DNA oligomers, S2 and AS2 obtained in Procedure 2, were mixed together and were incubated in a hot bath at 94° C. for 1 min. After the annealing was partially broken, they were further incubated at 25° C. for 1 hr. Thus double-stranded DNA with annealing of S2 and AS2 was formed. Then, the terminus of the double-stranded DNA with annealing of S2 and AS2 was phosphorylated with DNA polynucleotide kinase (TOYOBO CO., LTD). After that, it was ligated to the pGV-P2 digestion products which were prepared previously using the NheI site and XhoI site. Thus the reporter plasmid pGV-P2-PPRE was obtained.
Using the plasmid obtained by the procedures 3 and 4, transformation of Escherichia coli HB-101 strain was carried out by conventional methods. HB-101 strain having the plasmid was incubated in L-broth medium (containing 10 g of trypton (Difco), 5 g of yeast extract (Difco), 5 g of sodium chloride in 1 L of aqueous solution) containing 100 μg/ml of ampicillin at 37° C. for 17 hrs. Then, each plasmid was purified by the alkaline-SDS method and employed for the gene transfection to mammalian cells. After mixing the pSG5-hPPARg, PGV-P2-PPRE and LipofectAMINE reagent (GIBCO BRL), the human osteosarcoma MG63 was transiently transfected. Then the cells were recovered. The recovered cells were plated on a 96-well plate so as to be 30,000 cells/well and cultured in a CO2 incubator (NAPCO) at 37° C. for 24 hr under the condition of 5% CO2, 95%-RH.
Various concentrations of the test compound alone were added to culturing medium of the cells prepared in the Procedure 5. After 24 hr of culturing, LT2.0 (TOYO INK MFG CO., LTD), a luciferase substrate, was added to the medium free culture plate. […]

[5] = test system: Rat white adipocytes; assay: Inhibition of the differentiation of adipocytes (Oil Red O); assay type: cell-based; conditions: Rattus norvegicus, Adipocyte, 120 h, 100 nM test compound; 5 days; Oil Red O ABS550; control = 100%, blank = 0%; Table 3; read-out: Rate of Differentiation (%)
Summary of the method: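 Rat white preadipocytes, 5,000 cells/well, given differentiation medium with compound at 100 nM final (0.1% DMSO) for 5 days at 37 °C. Lipid stained with Oil Red O, eluted in DMSO, read at 550 nm; differentiation % relative to DMSO control (100%) and blank (0%).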

| EC50 [4] [nM] | Compound | inhibition at 1 µM [1] [%] | activity at 0.1 µM [2] [%] | activity at 0.1 µM [3] [%] | Rate of Uptake (%) of [2-14C] acetic acid ([3]; 0.1 μM test substance) [%] | activity at 0.1 µM [5] [%] |
| --- | --- | --- | --- | --- | --- | --- |
|  | CCc1ccc(NC(=O)c2cc([N+](=O)[O-])ccc2Cl)cc1 [Example 12, N-(4-Ethylphenyl)-(2-chloro-5-nitrophenyl)carboxamide] | 21.8 | 120 | 66.4 |  |  |
|  | CCc1ccccc1NC(=O)c1cc([N+](=O)[O-])ccc1Cl [Example 13, N-(2-Ethylphenyl)-(2-chloro-5-nitrophenyl)carboxamide] | 16.2 | 127 | 93 |  |  |
|  | O=C(Nc1nc2ccc(Cl)cc2s1)c1cc([N+](=O)[O-])ccc1Cl [Example 68, N-(6-Chlorobenzothiazol-2-yl)-(2-chloro-5-nitrophenyl)carboxamide] | 15.2 | 116 | 67.9 |  |  |
| 5.1 | Cc1cnc(NC(=O)c2cc([N+](=O)[O-])ccc2Cl)c(C)c1 [Example 74, N-(3,5-Dimethylpyriridin-2-yl)-(2-chloro-5-nitrophenyl)carboxamide] |  |  |  | 70.4 |  |
| 120 | COC(=O)c1cscc1NC(=O)c1cc([N+](=O)[O-])ccc1Cl [Example 76, N-(4-Methoxycarbonylthiophen-3-yl)-(2-chloro-5-nitrophenyl)carboxamide] |  |  | 54.3 |  |  |
| 68 | CCOC(=O)c1c(NC(=O)c2cc([N+](=O)[O-])ccc2Cl)sc2c1CCCC2 [Example 79, N-[3-Carboethoxy-4,5,6,7-tetrahydrobenzo[b]thiophen-2-yl]-(2-chloro-5-nitrophenyl)carboxamide] |  |  | 41.5 |  |  |
| 8.8 | O=C(Nc1ccc(S(=O)(=O)Nc2ccc3cn[nH]c3c2)cc1)c1cc([N+](=O)[O-])ccc1Cl [Example 103] |  |  | 72.1 |  |  |
| 88 | CCCCNC(=O)NS(=O)(=O)c1ccc(NC(=O)c2cc([N+](=O)[O-])ccc2Cl)cc1 [Example 107, N-[4-(Butylaminocarbonylaminosulfonyl)phenyl]-(2-chloro-5-nitrophenyl)carboxamide] |  |  | 71.3 |  |  |
|  | O=C(Nc1ccc(NC(=O)c2cc([N+](=O)[O-])ccc2Cl)cc1)c1cccnc1 [Example 123, N-[4-(Pyridin-3-ylcarbonylamino)phenyl]-(2-chloro-5-nitrophenyl)carboxamide] | 15.1 | 148 | 96.2 |  |  |
|  | CC(=O)Oc1ccc(-c2ccc(NC(=O)c3cc([N+](=O)[O-])ccc3Cl)cc2)cc1 [Example 134, N-[4-(4-Acetoxyphenyl)phenyl]-(2-chloro-5-nitrophenyl)carboxamide] | 16.4 | 120 |  |  |  |
| 31 | O=C(Nc1ccc(O)cc1)c1cc([N+](=O)[O-])ccc1Cl [Example 193, N-(4-Hydroxyphenyl)-(2-chloro-5-nitrophenyl)carboxamide] |  |  |  |  | 62.4 |
|  | O=C(NCc1ccccc1)Nc1ccc(-c2ccc(NC(=O)c3cc([N+](=O)[O-])ccc3Cl)cc2)cc1 [Example 248, N-[4-[4-(Benzylaminocarbonylamino)phenyl]phenyl]-(2-chloro-5-nitrophenyl)carboxamide] | 19.1 |  |  |  | 64.4 |
|  | Nc1cccc(-c2csc(NC(=O)c3cc([N+](=O)[O-])ccc3Cl)n2)c1 [Example 253, N-[4-(3-Aminophenyl)thiazol-2-yl]-(2-chloro-5-nitrophenyl)carboxamide] | 29 |  |  |  | 55.7 |
